Laboratory results reported in ChEMBL document CHEMBL1141910, “Combinatorial approaches towards the discovery of new tryptase inhibitors” (Bioorg Med Chem Lett, 2005).

Legend:
Tryptase beta-1 [1] = target: T1, Tryptase beta-1 (Homo sapiens, UniProt Q15661); test: Percentage inhibition against tryptase at 10 uM
Target sequence in this assay (Q15661 31-275 limits assumed): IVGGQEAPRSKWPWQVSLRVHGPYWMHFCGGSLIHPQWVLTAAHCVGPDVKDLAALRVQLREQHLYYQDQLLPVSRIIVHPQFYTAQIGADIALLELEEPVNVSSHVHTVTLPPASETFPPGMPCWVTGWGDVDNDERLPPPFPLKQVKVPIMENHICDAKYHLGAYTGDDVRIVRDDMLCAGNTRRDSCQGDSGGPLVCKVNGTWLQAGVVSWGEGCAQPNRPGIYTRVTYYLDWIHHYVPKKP

Tryptase beta-1 [2] = target: T1, Tryptase beta-1; test: Inhibitory concentration against tryptase
Target sequence in this assay (Q15661 whole entry): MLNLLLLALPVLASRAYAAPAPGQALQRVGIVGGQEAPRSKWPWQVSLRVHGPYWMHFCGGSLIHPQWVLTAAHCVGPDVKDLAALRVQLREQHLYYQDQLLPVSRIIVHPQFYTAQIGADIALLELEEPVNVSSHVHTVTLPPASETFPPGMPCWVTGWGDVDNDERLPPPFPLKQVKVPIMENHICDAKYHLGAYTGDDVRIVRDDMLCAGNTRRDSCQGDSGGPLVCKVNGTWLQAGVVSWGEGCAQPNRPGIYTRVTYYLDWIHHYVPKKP

| Structure (SMILES) | inhibition (Tryptase beta-1 [1]) | IC50 (Tryptase beta-1 [2]) |
| --- | --- | --- |
| N=C(N)NCCC[C@H](N)C(=O)O | 3.71% | – |
| N=C(N)NCCC[C@H](NC(=O)c1ccccc1)C(=O)NCCCC[C@@H]1NC(=O)[C@H](CC(=O)Nc2ccc(C(=N)N)cc2)NC1=O | 45% | – |
| N=C(N)NCCCC(=O)NCCCC[C@@H]1NC(=O)[C@H](CCCCNC(=O)[C@H](CCCNC(=N)N)NC(=O)OCc2ccccc2)NC1=O | 83% | 2.2 µM |
| N=C(N)NCCCC(=O)O | 8.92% | – |
| N=C(N)NCCC(=O)NCCCC[C@@H]1NC(=O)[C@H](CC(=O)Nc2cccc(C(=N)N)c2)NC1=O | 76.5% | 23.6 µM |
| N=C(N)NCCCC(NC(=O)OCC1c2ccccc2-c2ccccc21)C(=O)NCCCC[C@@H]1NC(=O)[C@H](CC(=O)Nc2cccc(C(=N)N)c2)NC1=O (some centres not stated) | 62.6% | 9.09 µM |
| N=C(N)Nc1ccc(C(=O)NCCCC[C@@H]2NC(=O)[C@H](CCCCNC(=O)CN3CCN=C3N)NC2=O)cc1 | 61.1% | – |
| N=C(N)NCC(=O)NCCCC[C@@H]1NC(=O)[C@H](CC(=O)Nc2cccc(C(=N)N)c2)NC1=O | 58.6% | 19.9 µM |
| N=C(N)NCCCCC(=O)NCCCC[C@@H]1NC(=O)[C@H](CCCCNC(=O)[C@H](CCCNC(=N)N)NC(=O)c2ccccc2)NC1=O | 47.5% | 9.3 µM |
| N=C(N)NCCCCC(=O)NCCCC[C@@H]1NC(=O)[C@H](CCCCNC(=O)[C@H](CCCNC(=N)N)NC(=O)OCc2ccccc2)NC1=O | 68% | 5.7 µM |
| N=C(N)NCCCCC(=O)O | 0.23% | – |
| N=C(N)NCCCC(=O)NCCCC[C@@H]1NC(=O)[C@H](CCCCNC(=O)[C@H](CCCNC(=N)N)NC(=O)c2ccccc2)NC1=O | 80.5% | 2.4 µM |
| N=C(N)NCCCC(NC(=O)OCC1c2ccccc2-c2ccccc21)C(=O)NCCCC[C@@H]1NC(=O)[C@H](CC(=O)/N=C(\N)NNCCCc2ccccc2)NC1=O (some centres not stated) | 49.3% | – |
| N=C(N)NCCCC(NC(=O)c1ccccc1)C(=O)O (configuration not stated) | 7.53% | – |
| N=C(N)NCCCCC(=O)NCCCC[C@@H]1NC(=O)[C@H](CCCCNC(=O)CCCNC(=N)N)NC1=O | 44.4% | – |
| N=C(N)NCCCC(NC(=O)OCc1ccccc1)C(=O)O (configuration not stated) | 1.97% | – |
| N=C(N)NCCC[C@H](NC(=O)OCc1ccccc1)C(=O)NCCCC[C@@H]1NC(=O)[C@H](CC(=O)Nc2ccc(C(=N)N)cc2)NC1=O | 41.6% | – |
| N=C(N)c1cccc(NC(=O)C[C@@H]2NC(=O)[C@H](CCCCNC(=O)CN3CCN=C3N)NC2=O)c1 | 47.7% | – |
| N=C(N)NCCCC(=O)NCCCC[C@@H]1NC(=O)[C@H](CCCCNC(=O)CCCNC(=N)N)NC1=O | 59.3% | 4.7 µM |
| NC(N)=Nc1ccc(C(=O)NCCCC[C@@H]2NC(=O)[C@H](CCCCNC(=O)CN3CCN=C3N)NC2=O)cc1 | – | 4.4 µM |

| Structure (SMILES) | inhibition (Tryptase beta-1 [1]) | IC50 (Tryptase beta-1 [2]) |
| --- | --- | --- |
| N=C(N)NCCC[C@H](NC(=O)c1ccccc1)C(=O)NCCCC[C@@H]1NC(=O)[C@H](CCCCNC(=O)CCNC(=N)N)NC1=O | 31.2% | – |
| N=C(N)Nc1ccc(C(=O)NCCCC[C@@H]2NC(=O)[C@H](CC(=O)Nc3cccc(C(=N)N)c3)NC2=O)cc1 | 47.3% | – |
| N=C(N)NCCC(=O)O | -6% | – |
| N=C(N)NCCCC(NC(=O)OCC1c2ccccc2-c2ccccc21)C(=O)NCCCC[C@@H]1NC(=O)[C@H](CC(=O)Nc2ccc(C(=N)N)cc2)NC1=O (some centres not stated) | 64.5% | – |
| CN(CCC(=O)NCCCC[C@@H]1NC(=O)[C@H](CCCCNC(=O)CCNC(=N)N)NC1=O)C(=N)N | – | 5.9 µM |
| N=C(N)c1ccc(C(=O)O)cc1 | 2.9% | – |
| N=C(N)NCCC[C@H](NC(=O)OCc1ccccc1)C(=O)NCCCC[C@@H]1NC(=O)[C@H](CC(=O)Nc2cccc(C(=N)N)c2)NC1=O | 59% | – |
| N=C(N)NNC(=O)C[C@@H]1NC(=O)[C@H](CCCCNC(=O)c2ccc(NC(=N)N)cc2)NC1=O | 42.5% | – |
| NC1=NCCN1CC(=O)O | 3.24% | – |
| N=C(N)Nc1ccc(C(=O)O)cc1 | 38.8% | – |
| N=C(N)Nc1ccc(C(=O)NCCCC[C@@H]2NC(=O)[C@H](CC(=O)Nc3ccc(C(=N)N)cc3)NC2=O)cc1 | 73.9% | – |
| CN(CCC(=O)NCCCC[C@@H]1NC(=O)[C@H](CC(=O)Nc2cccc(C(=N)N)c2)NC1=O)C(=N)N | 62.6% | 12.8 µM |
| CN(CCC(=O)O)C(=N)N | 2.55% | – |
| CN(CCC(=O)NCCCC[C@@H]1NC(=O)[C@H](CCCCNC(=O)CCN=C(N)N)NC1=O)C(=N)N | 51.7% | – |
| CN(CCC(=O)NCCCC[C@@H]1NC(=O)[C@H](CCCCNC(=O)CCCN=C(N)N)NC1=O)C(=N)N | 36.7% | – |
| N=C(N)NCCC[C@H](NC(=O)OCc1ccccc1)C(=O)NCCCC[C@@H]1NC(=O)[C@H](CCCCNC(=O)[C@H](CCCN=C(N)N)NC(=O)OCc2ccccc2)NC1=O | 48.5% | 4.1 µM |
| N=C(N)NCCC[C@H](NC(=O)c1ccccc1)C(=O)NCCCC[C@@H]1NC(=O)[C@H](CC(=O)Nc2cccc(C(=N)N)c2)NC1=O | 70.6% | 12.4 µM |
| N=C(N)NCC(=O)O | -3% | – |
| N=C(N)NCCC[C@H](NC(=O)OCc1ccccc1)C(=O)NCCCC[C@@H]1NC(=O)[C@H](CCCCNC(=O)[C@H](CCCN=C(N)N)NC(=O)c2ccccc2)NC1=O | 43.3% | – |
| N=C(N)NCCCC(=O)NCCCC[C@@H]1NC(=O)[C@H](CC(=O)Nc2cccc(C(=N)N)c2)NC1=O | 54.4% | 21.3 µM |
